From PubChem BioAssay AID330 (DTP/NCI, 2004)
Values joined by “and” are separate entries in the source; they are usually repeats but may differ in a detail not shown here. Equal entries are not always repeated. Toxic doses and inconclusive results are not listed. Rule for the calls: active = survival T/C of 150% or more; inactive = T/C below 125% in these data.

Test system: P388 leukemia ip, CD2F1 mice, survival T/C
Assay: NCI In Vivo Anticancer Drug Screen. Data for tumor model P388 Leukemia (intraperitoneal) in CD2F1 (CDF1) mice
Conditions: endpoint: median survival time, higher = longer survival
Summary of the method: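 Mice carrying the transplanted tumor received test compound or vehicle. Survival was recorded in each group, and the value is the treated-group measurement divided by that of the vehicle-treated control group.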

[1] = dose: 3.0 mg/kg/injection, schedule: Q01DX009 (ip), vehicle: Klucel (hydroxypropylcellulose) (HPC)
[2] = dose: 6.0 mg/kg/injection, schedule: Q01DX009 (ip), vehicle: Klucel (hydroxypropylcellulose) (HPC)
[3] = dose: 12.0 mg/kg/injection, schedule: Q01DX009 (ip), vehicle: Klucel (hydroxypropylcellulose) (HPC)
[4] = dose: 6.25 mg/kg/injection, schedule: Q01DX009 (ip), vehicle: saline
[5] = dose: 12.5 mg/kg/injection, schedule: Q01DX009 (ip), vehicle: saline
[6] = dose: 60.0 mg/kg/injection, schedule: Q01DX005 (ip), vehicle: saline with Tween-80
[7] = dose: 50.0 mg/kg/injection, schedule: Q01DX009 (ip), vehicle: saline
[8] = dose: 100.0 mg/kg/injection, schedule: Q01DX009 (ip), vehicle: saline
[9] = dose: 200.0 mg/kg/injection, schedule: Q01DX009 (ip), vehicle: saline
[10] = dose: 50.0 mg/kg/injection, schedule: Q01DX005 (ip), vehicle: saline
[11] = dose: 100.0 mg/kg/injection, schedule: Q01DX005 (ip), vehicle: saline
[12] = dose: 200.0 mg/kg/injection, schedule: Q01DX005 (ip), vehicle: saline
[13] = dose: 25.0 mg/kg/injection, schedule: Q01DX009 (ip), vehicle: other
[14] = dose: 50.0 mg/kg/injection, schedule: Q01DX009 (ip), vehicle: other
[15] = dose: 100.0 mg/kg/injection, schedule: Q01DX009 (ip), vehicle: other

Measured: T/C

C=C(CO)C(=O)OC1CC(=C)C2CC(O)C(C)C2C2OC(=O)C(=C)C12 (stereo not given)
inactive: dose: 0.75 mg/kg/injection, schedule: Q01DX009 (ip), vehicle: Klucel (hydroxypropylcellulose) (HPC) 100 % of control and 114 % of control | dose: 1.5 mg/kg/injection, schedule: Q01DX009 (ip), vehicle: Klucel (hydroxypropylcellulose) (HPC) 104 % of control and 91 % of control | [1] 98 % of control and 97 % of control | [2] 102 % of control and 107 % of control and 112 % of control | [3] 103 % of control | dose: 24.0 mg/kg/injection, schedule: Q01DX009 (ip), vehicle: Klucel (hydroxypropylcellulose) (HPC) 98 % of control

c1ccc(-c2n[nH]c3ccccc23)cc1
inactive: dose: 25.0 mg/kg/injection, schedule: Q04DX003 (ip), vehicle: saline with Tween-80 101 % of control | dose: 50.0 mg/kg/injection, schedule: Q04DX003 (ip), vehicle: saline with Tween-80 110 % of control | dose: 100.0 mg/kg/injection, schedule: Q04DX003 (ip), vehicle: saline with Tween-80 101 % of control | dose: 200.0 mg/kg/injection, schedule: Q04DX003 (ip), vehicle: saline with Tween-80 99 % of control

CCCCC[N+]1(CC)CCCCC1
inactive: dose: 3.12 mg/kg/injection, schedule: Q01DX009 (ip), vehicle: saline 104 % of control | [4] 106 % of control | [5] 104 % of control

CCC(c1ccc(CN(C)C)c(O)c1)C(CC)c1ccc(CN(C)C)c(O)c1 (stereo not given)
inactive: [6] 93 % of control | dose: 120.0 mg/kg/injection, schedule: Q01DX005 (ip), vehicle: saline with Tween-80 91 % of control | dose: 240.0 mg/kg/injection, schedule: Q01DX005 (ip), vehicle: saline with Tween-80 102 % of control

CN1C(=O)OC(c2ccc(Cl)cc2)C1=O (stereo not given)
inactive: dose: 25.0 mg/kg/injection, schedule: Q01DX005 (ip), vehicle: Klucel (hydroxypropylcellulose) (HPC) 100 % of control | dose: 50.0 mg/kg/injection, schedule: Q01DX005 (ip), vehicle: Klucel (hydroxypropylcellulose) (HPC) 100 % of control | dose: 100.0 mg/kg/injection, schedule: Q01DX005 (ip), vehicle: Klucel (hydroxypropylcellulose) (HPC) 107 % of control | dose: 200.0 mg/kg/injection, schedule: Q01DX005 (ip), vehicle: Klucel (hydroxypropylcellulose) (HPC) 100 % of control

CC(=O)C1=CN(Cc2ccccc2)C=C(C)C1
inactive: [7] 99 % of control | [8] 96 % of control | [9] 96 % of control

NC(=O)C1CCCN(C2OC(COP(=O)(O)OP(=O)(O)OCC3OC(n4nnc5c(=O)[nH]c(N)nc54)C(O)C3O)C(O)C2O)C1 (stereo not given)
inactive: [10] 115 % of control | [11] 98 % of control | [12] 87 % of control

COc1cc([C@@H]2c3cc4c(cc3C[C@H]3COC(=O)[C@@H]32)OCO4)cc2c1OCO2
inactive: dose: 1.8 mg/kg/injection, schedule: Q01DX009 (ip), vehicle: distilled water + Tween-80 113 % of control | [1] 109 % of control | dose: 3.75 mg/kg/injection, schedule: Q01DX009 (ip), vehicle: distilled water + Tween-80 95 % of control | [2] 118 % of control | [3] 122 % of control

Nc1[nH]c(=O)[nH]c(=O)c1S(=O)(=O)O
inactive: dose: 50.0 mg/kg/injection, schedule: Q01DX009 (ip), vehicle: Klucel (hydroxypropylcellulose) (HPC) 95 % of control | dose: 100.0 mg/kg/injection, schedule: Q01DX009 (ip), vehicle: Klucel (hydroxypropylcellulose) (HPC) 90 % of control | dose: 200.0 mg/kg/injection, schedule: Q01DX009 (ip), vehicle: Klucel (hydroxypropylcellulose) (HPC) 95 % of control

Cc1ccc(C(=O)CC(=O)Nc2cc([N+](=O)[O-])ccc2OCCOc2ccc(C(C)(C)CC(C)(C)C)cc2)cc1
inactive: dose: 18.75 mg/kg/injection, schedule: Q04DX003 (ip), vehicle: saline sonified 109 % of control | dose: 37.5 mg/kg/injection, schedule: Q04DX003 (ip), vehicle: saline sonified 90 % of control | dose: 75.0 mg/kg/injection, schedule: Q04DX003 (ip), vehicle: saline sonified 109 % of control

CC(C)CC(=O)OCC1=CCN2CC[C@@H](O)[C@@H]12
inactive: dose: 15.0 mg/kg/injection, schedule: Q01DX009 (ip), vehicle: saline + alcohol 105 % of control | dose: 30.0 mg/kg/injection, schedule: Q01DX009 (ip), vehicle: saline + alcohol 109 % of control | dose: 60.0 mg/kg/injection, schedule: Q01DX009 (ip), vehicle: saline + alcohol 105 % of control | dose: 120.0 mg/kg/injection, schedule: Q01DX009 (ip), vehicle: saline + alcohol 108 % of control | dose: 240.0 mg/kg/injection, schedule: Q01DX009 (ip), vehicle: saline + alcohol 108 % of control | dose: 480.0 mg/kg/injection, schedule: Q01DX009 (ip), vehicle: saline + alcohol 114 % of control

O=[N+]([O-])c1cccc2nc(Cl)ccc12
inactive: [13] 93 % of control | [14] 93 % of control | [15] 98 % of control

O=C(N1CCC(CCN2CCCC2)CC1)C(O)(c1ccccc1)c1ccccc1
inactive: dose: 25.0 mg/kg/injection, schedule: Q04DX002 (ip), vehicle: saline 107 % of control | dose: 50.0 mg/kg/injection, schedule: Q04DX002 (ip), vehicle: saline 107 % of control | dose: 100.0 mg/kg/injection, schedule: Q04DX002 (ip), vehicle: saline 106 % of control and 97 % of control

CCOC(=O)/C=C/CI
inactive: [13] 105 % of control and 98 % of control | [14] 114 % of control and 120 % of control and 97 % of control | [15] 117 % of control and 97 % of control

O=C1OC(=O)C2c3ccccc3C=CC12 (stereo not given)
inactive: dose: 25.0 mg/kg/injection, schedule: Q01DX001 (ip), vehicle: saline with Tween-80 98 % of control | dose: 50.0 mg/kg/injection, schedule: Q01DX001 (ip), vehicle: saline with Tween-80 98 % of control | dose: 100.0 mg/kg/injection, schedule: Q01DX001 (ip), vehicle: saline with Tween-80 104 % of control | dose: 200.0 mg/kg/injection, schedule: Q01DX001 (ip), vehicle: saline with Tween-80 120 % of control | dose: 400.0 mg/kg/injection, schedule: Q01DX001 (ip), vehicle: saline with Tween-80 113 % of control

CCOC(=O)c1cnc2c(c(Br)cc3c4cc(Br)ccc4[nH]c32)c1Cl
inactive: [4] 112 % of control | [5] 107 % of control | dose: 25.0 mg/kg/injection, schedule: Q01DX009 (ip), vehicle: saline 111 % of control | [7] 97 % of control | [8] 91 % of control | [9] 88 % of control

CC1=C(C(=O)Nc2ccccc2)C(c2ccccc2)C(C(=O)Nc2ccccc2)=C(C)N1
inactive: dose: 100.0 mg/kg/injection, schedule: Q04DX002 (ip), vehicle: saline with Tween-80 95 % of control | dose: 200.0 mg/kg/injection, schedule: Q04DX002 (ip), vehicle: saline with Tween-80 94 % of control | dose: 400.0 mg/kg/injection, schedule: Q04DX002 (ip), vehicle: saline with Tween-80 94 % of control

O.O.O=C(O)C(=O)O.O=C(O)C(=O)O.[Rh]
inactive: dose: 25.0 mg/kg/injection, schedule: Q04DX003 (ip), vehicle: water 94 % of control | dose: 50.0 mg/kg/injection, schedule: Q04DX003 (ip), vehicle: water 95 % of control | dose: 100.0 mg/kg/injection, schedule: Q04DX003 (ip), vehicle: water 100 % of control | dose: 200.0 mg/kg/injection, schedule: Q04DX003 (ip), vehicle: water 100 % of control

Fc1ccc(F)c(C(Nc2nncs2)Nc2nncs2)c1
inactive: dose: 30.0 mg/kg/injection, schedule: Q01DX005 (ip), vehicle: saline with Tween-80 110 % of control | [6] 108 % of control and 119 % of control

O=C(O)C1(N(CCO)CCO)CCCC1
inactive: [10] 104 % of control | [11] 100 % of control | [12] 106 % of control
